The values below come from patent US20240383923A1, “HETEROARYL DERIVATIVE AND USE THEREOF” (VORONOI INC., priority 2022, published 2024).

Bounds are passed on as bounds.

The assay relates to BT-474 cancer cells. Kind of assay: Inhibition of BT-474 cell proliferation (CellTiter-Glo). The assay is classed as cell-based. To be noted: Homo sapiens, BT-474 cells, 120 hours. Here is the method: BT-474 cancer cells were cultured by using RPMI-1640 medium containing 20% FBS. The BT-474 cancer cells were seeded to a white clear bottom 96 well plate (Corning) at 5,000 cells per well 48 hours before the BT-474 cancer cells were treated with Example Compounds. Example Compounds were diluted in dimethylsulfoxide (3-fold diluted, total 11 concentrations) and 1 μL each was injected so that the final concentration was 0.2 nM to 10 μM. For the measurement of living cells, the cells were stored at room temperature for 10 minutes using the CellTiter-Glo cell viability reagent (Promega) after a predetermined time (120 hours) after the treatment of Example Compounds, and then the luminescence intensity was measured using a reader (SynergyNeo, Biotek). Each test was repeated three times.
The result value was calculated as a cell growth rate (%) compared to a control group. Graphs were plotted and GI50 values were calculated using the GraphPad Prism version 8.0 program, and the results are shown in Table 18 below.
With `COc1cc(Oc2ccn3ncnc3c2)c(C)cc1Nc1ncnc2cc(OC(F)F)c(NC(=O)/C(F)=C\[C@H]3CCCN3C)cc12` [Example 99, (R,E)-N-(4-((4-([1,2,4]triazolo[1,5-a]pyridin-7-yloxy)-2-methoxy-5-methylphenyl)amino)-7-(difluoromethoxy)quinazolin-6-yl)-2-fluoro-3-(1-methylpyrrolidin-2-yl)acrylamide], the GI50 is not above 50 nM. The value for `COc1cc(Oc2ccn3ncnc3c2)c(C)cc1Nc1ncnc2cc(OCCN3CCOCC3)c(NC(=O)/C(F)=C/[C@H]3CCCN3C)cc12` [Example 101, (R,Z)—N-(4-((4-([1,2,4]triazolo[1,5-a]pyridin-7-yloxy)-2-methoxy-5-methylphenyl)amino)-7-(2-morpholinoethoxy)quinazolin-6-yl)-2-fluoro-3-(1-methylpyrrolidin-2-yl)acrylamide] was not above 50 nM. `COc1cc(Oc2ccn3ncnc3c2)c(C)cc1Nc1ncnc2cc(F)c(NC(=O)/C(F)=C\[C@H]3CCCN3C)cc12` [Example 102, (R,E)-N-(4-((4-([1,2,4]triazolo[1,5-a]pyridin-7-yloxy)-2-methoxy-5-methylphenyl)amino)-7-fluoroquinazolin-6-yl)-2-fluoro-3-(1-methylpyrrolidin-2-yl)acrylamide]: the GI50 is not above 50 nM. The value for `COc1cc(Oc2ccn3ncnc3c2)c(C)cc1Nc1ncnc2cc(F)c(NC(=O)/C(F)=C/[C@H]3CCCN3C)cc12` [Example 103, (R,Z)—N-(4-((4-([1,2,4]triazolo[1,5-a]pyridin-7-yloxy)-2-methoxy-5-methylphenyl)amino)-7-fluoroquinazolin-6-yl)-2-fluoro-3-(1-methylpyrrolidin-2-yl)acrylamide] was not above 50 nM; that for `COc1cc2ncnc(Nc3cc(C)c(Oc4ccn5ncnc5c4)cc3OC(F)(F)F)c2cc1NC(=O)/C(F)=C\[C@H]1CCCN1C` [Example 105, (R,E)-N-(4-((4-([1,2,4]triazolo[1,5-a]pyridin-7-yloxy)-5-methyl-2-(trifluoromethoxy)phenyl)amino)-7-methoxyquinazolin-6-yl)-2-fluoro-3-(1-methylpyrrolidin-2-yl)acrylamide] was more than 500 nM. The value for `COc1cc2ncnc(Nc3cc(C)c(Oc4ccn5ncnc5c4)cc3OC3CC3)c2cc1NC(=O)/C(F)=C\[C@H]1CCCN1C` [Example 106, (R,E)-N-(4-((4-([1,2,4]triazolo[1,5-a]pyridin-7-yloxy)-2-cyclopropoxy-5-methylphenyl)amino)-7-methoxyquinazolin-6-yl)-2-fluoro-3-(1-methylpyrrolidin-2-yl)acrylamide] was not above 50 nM; that for `COc1cc2ncnc(Nc3cc(C)c(Oc4ccn5ncnc5c4)cc3OC3CC3)c2cc1NC(=O)/C(F)=C/[C@H]1CCCN1C` [Example 107, (R,Z)—N-(4-((4-([1,2,4]triazolo[1,5-a]pyridin-7-yloxy)-2-cyclopropoxy-5-methylphenyl)amino)-7-methoxyquinazolin-6-yl)-2-fluoro-3-(1-methylpyrrolidin-2-yl)acrylamide] was not above 50 nM; that for `COc1cc2ncnc(Nc3ccc(Oc4ccn5ncnc5c4)cc3OC3COC3)c2cc1NC(=O)/C(F)=C\[C@H]1CCCN1C(=O)OC(C)(C)C` [Example 109, tert-butyl (R,E)-2-(3-((4-((4-([1,2,4]triazolo[1,5-a]pyridin-7-yloxy)-2-(oxetan-3-yloxy)phenyl)amino)-7-methoxyquinazolin-6-yl)amino)-2-fluoro-3-oxoprop-1-en-1-yl)pyrrolidine-1-carboxylate] was more than 500 nM. The value for `COc1cc2ncnc(Nc3cc(C)c(Oc4ccn5ncnc5c4)cc3OC)c2cc1NC(=O)/C(F)=C/[C@@H]1CCCN1C` [Example 112, (S,Z)—N-(4-((4-([1,2,4]triazolo[1,5-a]pyridin-7-yloxy)-2-methoxy-5-methylphenyl)amino)-7-methoxyquinazolin-6-yl)-2-fluoro-3-(1-methylpyrrolidin-2-yl)acrylamide] was not above 50 nM.
